Experiment [1] has as its target NAMPT (human, recombinant, C-terminally His-tagged) (Homo sapiens, UniProt P43490). Kind of experiment: Time-Resolved Fluorescence Resonance Energy Transfer (TR-FRET) Binding Assay of NAMPT. To be noted: without substrates; 6.8 nM NAMPT, 200 nM probe, 3 hours equilibration. Summed up: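 11-pt half-log compound series; final 6.8 nM NAMPT, 200 nM OG488 nicotinamide-competitive probe, 1 nM Tb-anti-His Ab, 2% DMSO, HEPES pH 7.5/NaCl/MgCl2/DTT/glycerol buffer. 3 h RT equilibration. Em520/Em495 ratio (Ex 337 nm), control-normalized, 4-parameter fit → IC50.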
Background: Time-resolved FRET reads energy transfer from a long-lived donor to a nearby acceptor.

Another experiment has as its target NAMPT (Homo sapiens, UniProt P43490). The experiment is described as follows: TR-FRET Binding Assay of NAMPT with PRPP. The conditions noted are these: with 200 μM PRPP and 2.5 mM ATP; 2 nM NAMPT, 2 nM probe, 16 hours equilibration. An outline of the steps: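 TR-FRET probe-displacement binding with 2 nM NAMPT, 2 nM probe and 1 nM Tb-anti-His antibody, run in the presence of 200 μM PRPP and 2.5 mM ATP at 2% DMSO. Equilibrated 16 hours before reading so test compounds could undergo enzymatic modification.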

The test system of another experiment is PC3 cells. The experiment is described as follows: NAMPT Cell Proliferation Assay. The experiment is classed as cell-based. To be noted: Homo sapiens, PC-3, 120 h, 5 days incubation, cell viability by Cell Titer Glo. An outline of the steps: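 Cell Titer Glo viability after 5-day exposure (37° C, 5% CO2); PC3, 500 cells/well, RPMI + 10% heat-inactivated FBS, overnight attachment before dosing. Dose range 10 μM to 1×10^−5 μM, 10-fold steps. IC50 = sigmoidal fit of % inhibition.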

Sequence of NAMPT (human, recombinant, C-terminally His-tagged) (P43490 whole entry): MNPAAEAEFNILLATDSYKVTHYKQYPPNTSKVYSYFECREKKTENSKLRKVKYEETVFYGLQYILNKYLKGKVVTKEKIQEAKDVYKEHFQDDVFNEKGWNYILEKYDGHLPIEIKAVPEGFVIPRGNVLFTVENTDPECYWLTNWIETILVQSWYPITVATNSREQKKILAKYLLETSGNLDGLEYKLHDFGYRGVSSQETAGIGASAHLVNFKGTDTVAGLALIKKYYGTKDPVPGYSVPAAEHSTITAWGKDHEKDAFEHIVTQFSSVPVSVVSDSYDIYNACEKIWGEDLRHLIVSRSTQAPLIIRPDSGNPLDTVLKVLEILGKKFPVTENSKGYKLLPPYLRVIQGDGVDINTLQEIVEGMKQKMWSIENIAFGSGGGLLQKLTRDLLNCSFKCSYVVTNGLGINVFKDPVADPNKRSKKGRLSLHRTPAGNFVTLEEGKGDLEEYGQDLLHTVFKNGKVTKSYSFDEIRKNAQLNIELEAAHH
Sequence of NAMPT (P43490 whole entry): as above

As to `Cc1noc(C)c1CCC(=O)N(CC1CCCO1)c1ncc(C(=O)NCc2ccc3nccn3c2)s1` (stereo not drawn) [Example 129, 2-{[3-(3,5-dimethyl-1,2-oxazol-4-yl)propanoyl](tetrahydrofuran-2-ylmethyl)amino}-N-(imidazo[1,2-a]pyridin-6-ylmethyl)-1,3-thiazole-5-carboxamide], the IC50 – broadly, the point on the concentration scale where inhibition reaches its midpoint – in experiment [1] is 11.6 nM; at NAMPT, 0.634 nM; with PC3 cells it was 2.74 nM.
The matching figures for `O=C(NCCCCC1CCN(C(=O)CC2CCOC2)CC1)Nc1ccc2nccn2c1` (stereo not drawn) [Example 73, 1-imidazo[1,2-a]pyridin-6-yl-3-{4-[1-(tetrahydrofuran-3-ylacetyl)piperidin-4-yl]butyl}urea]: 605 nM, 0.426 nM and 59.5 nM.
The matching figures for `CC(C)(CO)NC(=O)c1ccc(NC(=O)Nc2ccc3nccn3c2)cc1` [Example 6, N-(1-hydroxy-2-methylpropan-2-yl)-4-[(imidazo[1,2-a]pyridin-6-ylcarbamoyl)amino]benzamide]: 2910 nM, 0.964 nM and 6650 nM.
The matching figures for `O=C(NCc1ccn2ccnc2c1)c1ccc(C2CCN(C(=O)c3ccncc3)CC2)cc1` [Example 535, N-(imidazo[1,2-a]pyridin-7-ylmethyl)-4-[1-(pyridin-4-ylcarbonyl)piperidin-4-yl]benzamide]: 297 nM, 0.325 nM and 28.5 nM.
Take `CC(C)CC(=O)N1CCC(c2ncc(C(=O)NCc3ccn4ccnc4c3)s2)CC1` [Example 544, N-(imidazo[1,2-a]pyridin-7-ylmethyl)-2-[1-(3-methylbutanoyl)piperidin-4-yl]-1,3-thiazole-5-carboxamide]: the figures for the IC50 (in experiment [1]; at NAMPT; with PC3 cells) were 871 nM, 0.437 nM and 647 nM, respectively.
For the molecule `O=C(NCc1ccc2nccn2c1)c1ccc(-c2cnn(CC3CCC3)c2)s1` [Example 178, 5-[1-(cyclobutylmethyl)-1H-pyrazol-4-yl]-N-(imidazo[1,2-a]pyridin-6-ylmethyl)thiophene-2-carboxamide], the IC50 in experiment [1] was 14.3 nM; on NAMPT it was 0.169 nM; in the experiment on PC3 cells it was 1.85 nM.
The matching figures for `CC(C)(O)Cn1cc(-c2ccc(C(=O)NCc3ccn4ccnc4c3)o2)cn1` [Example 483, 5-[1-(2-hydroxy-2-methylpropyl)-1H-pyrazol-4-yl]-N-(imidazo[1,2-a]pyridin-7-ylmethyl)furan-2-carboxamide]: 130 nM, 0.575 nM and 12.4 nM.
The matching figures for `CC(C)(O)C(=O)N1CC=C(c2ccc(NC(=O)Nc3ccc4nccn4c3)cc2)CC1` [Example 29, 1-{4-[1-(2-hydroxy-2-methylpropanoyl)-1,2,3,6-tetrahydropyridin-4-yl]phenyl}-3-imidazo[1,2-a]pyridin-6-ylurea]: 168 nM, 0.236 nM and 43.9 nM.
For the molecule `O=C(NCc1ccn2ccnc2c1)c1ccc(C2CCN(C(=O)c3cc(F)ccc3F)C2)s1` (stereo not drawn) [Example 785, 5-[1-(2,5-difluorobenzoyl)pyrrolidin-3-yl]-N-(imidazo[1,2-a]pyridin-7-ylmethyl)thiophene-2-carboxamide], the results for the IC50 (in experiment [1]; on NAMPT; in the experiment on PC3 cells) were 23.6 nM, 0.638 nM and 0.839 nM, respectively.
The matching figures for `O=C(NCc1ccn2ccnc2c1)c1ccc(OC2CN(C(=O)CC3CC3)C2)cc1` [Example 560, 4-{[1-(cyclopropylacetyl)azetidin-3-yl]oxy}-N-(imidazo[1,2-a]pyridin-7-ylmethyl)benzamide]: 969 nM, 0.312 nM and 844 nM.
On to `CC(C)CCNC(=O)c1ccc(NC(=O)Nc2ccn3ccnc3c2)cc1` [Example 2, 4-[(imidazo[1,2-a]pyridin-7-ylcarbamoyl)amino]-N-(3-methylbutyl)benzamide], for which the IC50 in experiment [1] is 854 nM; on NAMPT, 39.8 nM; with PC3 cells it was above 10000 nM.
For `CCCC(=O)N1CC[C@H](Oc2ccc(C(=O)NCc3ccn4ccnc4c3)cc2)C1` [Example 350, 4-{[(3S)-1-butanoylpyrrolidin-3-yl]oxy}-N-(imidazo[1,2-a]pyridin-7-ylmethyl)benzamide], the figures for the IC50 (in experiment [1]; on NAMPT; in the experiment on PC3 cells) were above 10000 nM, 0.795 nM and 8170 nM, respectively.
The matching figures for `O=C(NCc1ccn2ccnc2c1)Nc1ccc(OC2CN(C(=O)CC3CCOCC3)C2)cc1` [Example 435, 1-(imidazo[1,2-a]pyridin-7-ylmethyl)-3-(4-{[1-(tetrahydro-2H-pyran-4-ylacetyl)azetidin-3-yl]oxy}phenyl)urea]: 163 nM, 0.191 nM and 20.4 nM.
The matching figures for `Cc1ccsc1C(=O)N1CC(c2ccc(C(=O)NCc3ccn4ccnc4c3)cc2)C1` [Example 670, N-(imidazo[1,2-a]pyridin-7-ylmethyl)-4-{1-[(3-methylthiophen-2-yl)carbonyl]azetidin-3-yl}benzamide]: 62 nM, 0.545 nM and 9.92 nM.
On to `N#Cc1cccc(C(=O)N2CC(c3ccc(C(=O)NCc4ccn5ccnc5c4)cc3)C2)c1` [Example 653, 4-[1-(3-cyanobenzoyl)azetidin-3-yl]-N-(imidazo[1,2-a]pyridin-7-ylmethyl)benzamide], for which the IC50 in experiment [1] turned out to be 831 nM; on NAMPT, 0.893 nM; in the experiment on PC3 cells it was 715 nM.
The matching figures for `O=C(NCc1ccn2ccnc2c1)c1ccc(C2CCN(C(=O)C3CC3)C2)s1` (stereo not drawn) [Example 717, 5-[1-(cyclopropylcarbonyl)pyrrolidin-3-yl]-N-(imidazo[1,2-a]pyridin-7-ylmethyl)thiophene-2-carboxamide]: 186 nM, 0.428 nM and 72.4 nM.
The matching figures for `COc1cccc(C(=O)N2CCC(c3ccc(C(=O)NCc4ccn5ccnc5c4)s3)C2)c1` (stereo not drawn) [Example 759, N-(imidazo[1,2-a]pyridin-7-ylmethyl)-5-[1-(3-methoxybenzoyl)pyrrolidin-3-yl]thiophene-2-carboxamide]: 28.5 nM, 0.799 nM and 1.65 nM.
The matching figures for `O=C(NCc1ccn2ccnc2c1)c1ccc(C2CN(C(=O)c3cncs3)C2)cc1` [Example 634, N-(imidazo[1,2-a]pyridin-7-ylmethyl)-4-[1-(1,3-thiazol-5-ylcarbonyl)azetidin-3-yl]benzamide]: 353 nM, 0.648 nM and 83.5 nM.
`O=C(NCc1ccn2ccnc2c1)c1ccc(N2C[C@H](O)CC2=O)s1` [Example 267, 5-[(4R)-4-hydroxy-2-oxopyrrolidin-1-yl]-N-(imidazo[1,2-a]pyridin-7-ylmethyl)thiophene-2-carboxamide]: the IC50 amounted to 54.3 nM in experiment [1], 0.291 nM at NAMPT and 665 nM with PC3 cells.
Consider `O=C(NCc1ccn2ccnc2c1)c1ccc(C2CN(C(=O)c3ccccc3Cl)C2)cc1` [Example 643, 4-[1-(2-chlorobenzoyl)azetidin-3-yl]-N-(imidazo[1,2-a]pyridin-7-ylmethyl)benzamide], for which the half-inhibitory concentration (IC50) in experiment [1] was found to be 28 nM; on NAMPT, 0.552 nM; with PC3 cells it was 6.9 nM.
As to `O=C(CC1CCCO1)Nc1ccc(NC(=O)NCc2ccc3nccn3c2)cc1` (stereo not drawn) [Example 277, N-(4-{[(imidazo[1,2-a]pyridin-6-ylmethyl)carbamoyl]amino}phenyl)-2-(tetrahydrofuran-2-yl)acetamide], the IC50 in experiment [1] stood at 103 nM; on NAMPT, 0.667 nM; in the experiment on PC3 cells, 83.2 nM.
The matching figures for `O=C(NCc1ccn2ccnc2c1)Nc1ccc(C2CCN(C(=O)c3ccc(F)cc3F)CC2)cc1` [Example 722, 1-{4-[1-(2,4-difluorobenzoyl)piperidin-4-yl]phenyl}-3-(imidazo[1,2-a]pyridin-7-ylmethyl)urea]: 39.4 nM, 1.01 nM and 3.88 nM.
For the molecule `CC(C)(C)OC(=O)Nc1ccc(C(=O)NCc2ccn3ccnc3c2)cc1` [Example 207, tert-butyl {4-[(imidazo[1,2-a]pyridin-7-ylmethyl)carbamoyl]phenyl}carbamate], the IC50 was found to be 1510 nM in experiment [1], 0.282 nM on NAMPT and 739 nM in the experiment with PC3 cells.
Consider `O=C(NCc1ccc2nccn2c1)c1ccc(-c2cnn(CC3CCOCC3)c2)s1` [Example 201, N-(imidazo[1,2-a]pyridin-6-ylmethyl)-5-[1-(tetrahydro-2H-pyran-4-ylmethyl)-1H-pyrazol-4-yl]thiophene-2-carboxamide], for which the IC50 amounted to 46.6 nM in experiment [1], 0.281 nM on NAMPT and 1.89 nM with PC3 cells.
In the case of `O=C(CC1CCCC1)Nc1ccc(CNC(=O)c2ccc3nccn3c2)cc1` [Example 84, N-{4-[(cyclopentylacetyl)amino]benzyl}imidazo[1,2-a]pyridine-6-carboxamide], the IC50 in experiment [1] stood at 1670 nM; at NAMPT, 10.9 nM; in the experiment with PC3 cells, 762 nM.

These data come from patent US9187472B2 (AbbVie Inc., priority 2012, dated 2015).
